Laboratory results: article PMC11249637, “Interaction of the Atypical Tetracyclines Chelocardin and Amidochelocardin with Renal Drug Transporters” (ACS Pharmacology & Translational Science, 2024)

Columns and labels:
[1] = parameters: method as in PMID 38047701; settings: PK samples; cited from earlier work
hOAT1 = biological target: T1, hOAT1 (Homo sapiens, UniProt Q4U2R8); test: Two-point inhibition of hOAT1-mediated PAH uptake in transfected HEK293 cells; assay type: in vitro ADME; settings: PAH 10 μM, 1 min
T1 construct: expressed in transfected cells; host or cells: HEK293
T1 sequence (Q4U2R8 1-563): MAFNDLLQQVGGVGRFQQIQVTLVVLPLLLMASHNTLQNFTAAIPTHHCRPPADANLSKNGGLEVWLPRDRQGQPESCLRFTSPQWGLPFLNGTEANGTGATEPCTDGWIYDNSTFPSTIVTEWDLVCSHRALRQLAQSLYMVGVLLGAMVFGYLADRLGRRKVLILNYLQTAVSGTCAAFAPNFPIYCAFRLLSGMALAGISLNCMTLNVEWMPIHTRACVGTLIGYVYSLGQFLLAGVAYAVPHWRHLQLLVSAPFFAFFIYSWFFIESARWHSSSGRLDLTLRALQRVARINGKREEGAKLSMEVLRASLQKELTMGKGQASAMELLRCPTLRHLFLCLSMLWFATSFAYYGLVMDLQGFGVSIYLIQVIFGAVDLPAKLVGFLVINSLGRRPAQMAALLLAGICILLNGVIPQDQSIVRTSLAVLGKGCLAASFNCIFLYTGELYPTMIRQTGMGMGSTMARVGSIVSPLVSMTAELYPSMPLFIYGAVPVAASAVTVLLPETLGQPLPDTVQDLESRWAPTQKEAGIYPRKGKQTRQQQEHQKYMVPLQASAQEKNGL
Protocol: (§1) Well-characterized mOct1-, mOct2-, mOat1-, mOat2-, mOat3-, mMate1-, hOAT1-, hOAT3-, hOAT4-, hMRP2-, mMdr1a- and mMdr1b-transfected HEK293 cells and the respective vector-transfected control HEK293 cells were used.[42],[51],[52] All HEK293 cells (transporter-transfected and vector-transfected) were cultured in DMEM (Sigma, high glucose, 10% FBS, 1% penicillin (10,000 Units/mL)/streptomycin (10 mg/mL)) at 37°C under 5% CO2 in humidified atmosphere. The cells were routinely checked for the absence of mycoplasma infection. For the preparation of HEK293 cell monolayers, 24-well plates were pretreated with a poly-D-lysine hydrobromide solution (0.1 mg/mL). […]
(§2) For the uptake assay, the growth medium was aspirated, and each well was rinsed three times with 0.5 mL of incubation buffer (HBSS supplemented with 20 mM HEPES, pH 7.4) and incubated for 20 min at 37 °C. […] Cells were solubilized with 0.6 mL of 1N NaOH overnight and transferred into scintillation vials. ^3H and ^14C contents were measured after the addition of 2.5 mL of scintillator in a liquid scintillation counter.
(§3) The cellular protein amount was determined in parallel for each cell line (vector- and transporter-transfected) from six wells in a different 24-well reference plate using the Bradford method. […]
(§4) The inhibitory effect (I(%)) was calculated according to the formula: [drawing 5] […]

mOct2 = biological target: T2, mOct2 (Mus musculus, UniProt O70577); test: Two-point inhibition of mOct2-mediated MPP uptake in transfected HEK293 cells; assay type: in vitro ADME; settings: 1 and 10 μM; MPP 10 μM, 1 min
T2 construct: expressed in transfected cells; host or cells: HEK293
T2 sequence (O70577 1-553): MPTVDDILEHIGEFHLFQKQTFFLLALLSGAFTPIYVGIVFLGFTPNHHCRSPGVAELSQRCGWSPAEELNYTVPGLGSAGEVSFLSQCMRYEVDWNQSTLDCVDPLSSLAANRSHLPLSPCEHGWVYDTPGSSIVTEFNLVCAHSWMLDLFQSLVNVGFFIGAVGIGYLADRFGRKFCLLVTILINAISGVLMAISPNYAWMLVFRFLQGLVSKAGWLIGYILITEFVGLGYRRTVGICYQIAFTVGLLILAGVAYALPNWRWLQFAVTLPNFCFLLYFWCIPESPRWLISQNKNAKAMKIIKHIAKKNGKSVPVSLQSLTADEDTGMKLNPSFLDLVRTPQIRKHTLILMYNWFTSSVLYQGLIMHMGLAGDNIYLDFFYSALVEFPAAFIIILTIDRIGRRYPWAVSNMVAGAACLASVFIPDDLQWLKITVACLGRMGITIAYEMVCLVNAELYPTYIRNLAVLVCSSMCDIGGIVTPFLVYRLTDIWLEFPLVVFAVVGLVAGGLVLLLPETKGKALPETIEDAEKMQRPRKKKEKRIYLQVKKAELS
Protocol: as §1, §2, §3, §4

Cc1ccc2c(C)c3c(c(O)c2c1O)C(=O)[C@@]1(O)C(=O)C(C(N)=O)=C(O)[C@@H](N)[C@H]1C3 [CDCHD, amidochelocardin]
irreversible toxicity in histopathological analysis of kidneys and livers (in words) [1]: has not been observed | inhibitory effect on hOAT1 (in words) (hOAT1; 1 and 10 μM): No inhibitory effect | inhibitory effect on mOct2 (in words) (mOct2): No inhibitory effect

CC(=O)C1=C(O)[C@@H](N)[C@H]2Cc3c(c(O)c4c(O)c(C)ccc4c3C)C(=O)[C@@]2(O)C1=O [CHD, chelocardin]
irreversible toxicity in histopathological analysis of kidneys and livers (in words) [1]: has not been observed | inhibition at 10 µM (hOAT1; HEK293, at 10 μM, read-out: inhibitory effect on hOAT1): ~50% | inhibitory effect on mOct2 (in words) (mOct2): No inhibitory effect
